Reference: patent publication US3931140A, “(H-gly-gly-tyr-ala)^1 -somatostatin” (American Home Products Corporation, priority 1975, dated 1976)

Tested on: growth hormone present in the plasma
Test: In vivo growth hormone in plasma of Nembutal-treated rats by radioimmunoassay
Settings: for growth hormone per milliliter of plasma (average): 500 micrograms per kilogram, blood sampled 15 minutes after administration, p<0.01
Description: The in vivo activity of the heptadecapeptide of this invention was established by injecting Nembutal intraperitoneally into rats weighing between 200 to 250 grams in an amount of 50 milligrams per kilogram body weight. After five minutes, the heptadecapeptide of this invention was administered to the rats in a dose of 500 micrograms per kilogram body weight from a solution made from three milligrams of the heptadecapeptide,1.2 milliliters of water and 4.8 milliliters of polyethylene glycol (PEG 400). The rats blood was sampled 15 minutes after administration of the heptadecapeptide and the amount of growth hormone present in the plasma was determined by radioimmunoassay.

In the case of `C[C@H](NC(=O)[C@H](Cc1ccc(O)cc1)NC(=O)CNC(=O)CN)C(=O)NCC(=O)N[C@H]1CSSC[C@@H](C(=O)O)NC(=O)[C@H](CO)NC(=O)[C@H]([C@@H](C)O)NC(=O)[C@H](Cc2ccccc2)NC(=O)[C@H]([C@@H](C)O)NC(=O)[C@H](CCCCN)NC(=O)[C@H](Cc2c[nH]c3ccccc23)NC(=O)[C@H](Cc2ccccc2)NC(=O)[C@H](Cc2ccccc2)NC(=O)[C@H](CC(N)=O)NC(=O)[C@H](CCCCN)NC1=O` [heptadecapeptide, Glycyl-glycyl-L-tyrosyl-L-alanyl-glycyl-L-cysteinyl-L-lysyl-L-asparaginyl-L-phenylalanyl-L-phenylalanyl-L-tryptophyl-L-lysyl-L-threonyl-L-phenylalanyl-L-threonyl-L-seryl-L-cysteine[6-17 cyclic disulfide]], the “growth hormone per milliliter of plasma (average)” value (another experiment, twelve rats for control and testing, control 66 ± 10) is reported as 21 ± 7 nanograms growth hormone per milliliter of plasma, the “activity in reducing growth hormone concentrations in blood plasma compared with somatostatin” value (comparison with somatostatin, in words) is reported as “exceeds the activity of somatostatin” and the “growth hormone per milliliter of plasma (average)” value (first determination, eight treated rats, Nembutal 50 mg/kg i.p., control 86 ± 15) is reported as 9 ± 4 nanograms growth hormone per milliliter of plasma.
